Source: patent US4720483A, “Oligopeptides and intermediates and processes for their manufacture” (Ciba-Geigy Corporation, priority 1985, dated 1988)
Counter-ions that a name gives are not always drawn.

Assay: vasodilatory and cardiovascular actions in femtomol dosages, with and without blockers of the sympathetic nervous system
Assay type: in vivo
Conditions: blocker of the sympathetic nervous system
From the text: In femtomol dosages, the peptide-amides according to the invention have a vasodilatory action and result in a reduction of the blood pressure and an increase in the heart rate and in the contractility of the myocardium. The actions are not affected by blockers of the sympathetic nervous system, for example metoprolol [1-isopropylamino-3-(4-{2-methoxyethyl}phenoxy)-propan-2-ol] and Trandate® (labetalol hydrochloride), whereas the action of noradrenalin and of adrenalin in serum is suppressed by those substances.

| SMILES | action of noradrenalin and of adrenalin in serum |
| --- | --- |
| COCCc1ccc(OCC(O)CNC(C)C)cc1 (centres unmarked) [metoprolol, 1-isopropylamino-3-(4-{2-methoxyethyl}phenoxy)-propan-2-ol] | suppressed |
| CC(CCc1ccccc1)NCC(O)c1ccc(O)c(C(N)=O)c1 (centres unmarked) [Trandate, labetalol hydrochloride] | suppressed |
